# According to PubChem BioAssay (NCI):
#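 The compound was tested at five concentrations on cells cultured in 96-well plates, with a 48-hour exposure period. At the TGI there is no net growth.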
# What was measured:
# Assay in all cases: NCI-60 cell line screen, 48 h
# SF-539 CNS = test system: SF-539 CNS
# SK-OV-3 ovarian = test system: SK-OV-3 ovarian
# K-562 leukemia = test system: K-562 leukemia
# SF-268 CNS = test system: SF-268 CNS
# PC-3 prostate = test system: PC-3 prostate
# ACHN renal = test system: ACHN renal
# RPMI-8226 leukemia = test system: RPMI-8226 leukemia
# DU-145 prostate = test system: DU-145 prostate
# SR leukemia = test system: SR leukemia
# NCI-H226 lung = test system: NCI-H226 lung
# KM12 colon = test system: KM12 colon
# M14 melanoma = test system: M14 melanoma
# SNB-19 CNS = test system: SNB-19 CNS
# HOP-62 NSCLC = test system: HOP-62 NSCLC
# HS 578T breast = test system: HS 578T breast
SMILES,TGI (SF-539 CNS) [µM],TGI (SK-OV-3 ovarian) [µM],TGI (K-562 leukemia) [µM],TGI (SF-268 CNS) [µM],TGI (PC-3 prostate) [µM],TGI (ACHN renal) [µM],TGI (RPMI-8226 leukemia) [µM],TGI (DU-145 prostate) [µM],TGI (SR leukemia) [µM],TGI (NCI-H226 lung) [µM],TGI (KM12 colon) [µM],TGI (M14 melanoma) [µM],TGI (SNB-19 CNS) [µM],TGI (HOP-62 NSCLC) [µM],TGI (HS 578T breast) [µM]
CCOC(=O)Cn1nnc2ccc(Nc3nc4ccccc4nc3C(=O)OCC)cc21,91.8,> 100,> 100,> 100,> 100,> 100,> 100,> 100,> 100,> 100,> 100,> 100,> 100,> 100,> 100
COC(=O)/C(=C(/C)c1ccco1)P(=O)(OC)OC,> 100,> 100,–,> 100,> 100,> 100,> 100,> 100,> 100,> 100,> 100,> 100,> 100,> 100,> 100
CCCCOc1ccc(/C=C/C2=[N+](CCO)CCO2)cc1,96.2,> 100,66.5,> 100,> 100,> 100,74.7,> 100,62.7,70,> 100,> 100,> 100,> 100,> 100
CCN(CC)C1=Nc2ccccc2-n2ccnc2C1,> 100,–,> 100,> 100,> 100,> 100,–,> 100,> 100,> 100,> 100,> 100,> 100,> 100,> 100
CCN1CC2=C(OC(N)=C(C#N)C2c2ccc(Cl)cc2)/C(=C/c2ccc(Cl)cc2)C1 (stereo not drawn),–,81.5,> 100,49.6,98.9,45.9,85.1,> 100,> 100,94.3,> 100,> 100,51,78.4,> 100
O=c1[nH]nc(-c2ccc3ccccc3c2)[nH]1,> 100,–,> 100,> 100,> 100,> 100,> 100,> 100,> 100,> 100,> 100,> 100,> 100,> 100,24.2
CCCCOC(=O)Nc1ccc(S(=O)(=O)Nc2c(Cl)cccc2Cl)cc1,80,75.3,47.8,> 100,> 100,> 100,41.5,> 100,48.7,–,99.4,> 100,> 100,> 100,> 100
C[C@]12CC[C@H]3[C@@H](CC=C4C[C@@H](N5CCCC5)CC[C@@]43C)[C@@H]1C/C(=C\c1ccc([N+](=O)[O-])cc1)[C@@H]2O,32.4,30.1,–,40.1,88,29.3,38.5,34.7,3.98,36.2,33.2,30.2,59.2,32,40.3
